{"source": "patent US20160166604A1", "about": "“Thiol-Sensitive Positive Inotropes” (priority 2005, published 2016)", "type_in_all_cases": "cell-based", "key": {"mice cardiomyocytes": {"tested_on": "mice cardiomyocytes", "experiment": "Whole Ca2+ transients in isolated mouse myocytes (fluo-4, confocal line scan)", "protocol": "Wild type 2-4 month old mice were anesthetized with intraperitoneal pentobarbital sodium (100 mg/kg/ip). Hearts were perfused as previously described. Mongillo, M. et al., Circ. Res., 98, 226-234 (2006). To assess for sarcomere shortening, cells were imaged using field stimulation (Warner instruments) in an inverted fluorescence microscope (Diaphot 200; Nikon, Inc). Sarcomere length was measured by real-time Fourier transform (IonOptix MyoCam, CCCCD100M) and cell twitch amplitude is expressed as a percentage of resting cell length. Twitch kinetics was quantified by measuring the time to peak shortening and the time from peak shortening to 50% relaxation. For whole calcium transient measurements, myocytes were loaded with the Ca^2+ indicator fluo-4/AM (Molecular Probes, 20 μM for 30 min) and Ca^2+ transients were measured under field-stimulation at 0.5 Hz in perfusion solution by confocal laser scanning microscope (LSM510, Carl Zeiss). Digital image analysis used customer-designed programs coded in Interactive Data Language (IDL).\n(§1) To further explore potential HNO targets, calcium cycling in adult mouse and rat cardiac myocytes was examined. Cells were first exposed to AS for 5-10 min, then washed and loaded with Indo-1 or Fluo-4 for 20 min. Pretreatment with AS was carried out because the drug reacted with the Ca^2+ indicators (both Fluo-4 and Indo-1) and altered their fluorescent properties. In mice, the calcium transient amplitude assessed by confocal line scan imaging increased by ˜40% over baseline with 0.5 mM AS, (n=27, p<0.001) (FIG. 3A-FIG. 3C), time to peak transient was prolonged (FIG. 3D) while the decay time shortened (FIG. 3E). Basal fluorescence (F0) was unchanged by AS pretreatment (FIG. 3F). Similar results were obtained in rat myocytes (using Indo-1) for Ca^2+ transient amplitude (FIG. 3G and FIG. 3H) and decay time (FIG. 3I). The increase in amplitude was not accompanied by an increase in diastolic Ca^2+ level (ratio 405/485=0.239±0.006 (Con) vs. 0.243±0.008 (AS); n.s.; see also FIG. 3A, FIG. 3F and FIG. 3G). Rapid sustained caffeine (10 mM) application abruptly releases all SR Ca^2+ and subsequent [Ca^2+]i decline is mediated mainly via Na/Ca exchange."}, "RyR2": {"target": "T1, RyR2 (Mus musculus, UniProt E9Q401)", "T1 construct": "endogenous in cells; host or cells: freshly isolated adult mouse cardiac myocytes", "T1 sequence (E9Q401 whole entry)": "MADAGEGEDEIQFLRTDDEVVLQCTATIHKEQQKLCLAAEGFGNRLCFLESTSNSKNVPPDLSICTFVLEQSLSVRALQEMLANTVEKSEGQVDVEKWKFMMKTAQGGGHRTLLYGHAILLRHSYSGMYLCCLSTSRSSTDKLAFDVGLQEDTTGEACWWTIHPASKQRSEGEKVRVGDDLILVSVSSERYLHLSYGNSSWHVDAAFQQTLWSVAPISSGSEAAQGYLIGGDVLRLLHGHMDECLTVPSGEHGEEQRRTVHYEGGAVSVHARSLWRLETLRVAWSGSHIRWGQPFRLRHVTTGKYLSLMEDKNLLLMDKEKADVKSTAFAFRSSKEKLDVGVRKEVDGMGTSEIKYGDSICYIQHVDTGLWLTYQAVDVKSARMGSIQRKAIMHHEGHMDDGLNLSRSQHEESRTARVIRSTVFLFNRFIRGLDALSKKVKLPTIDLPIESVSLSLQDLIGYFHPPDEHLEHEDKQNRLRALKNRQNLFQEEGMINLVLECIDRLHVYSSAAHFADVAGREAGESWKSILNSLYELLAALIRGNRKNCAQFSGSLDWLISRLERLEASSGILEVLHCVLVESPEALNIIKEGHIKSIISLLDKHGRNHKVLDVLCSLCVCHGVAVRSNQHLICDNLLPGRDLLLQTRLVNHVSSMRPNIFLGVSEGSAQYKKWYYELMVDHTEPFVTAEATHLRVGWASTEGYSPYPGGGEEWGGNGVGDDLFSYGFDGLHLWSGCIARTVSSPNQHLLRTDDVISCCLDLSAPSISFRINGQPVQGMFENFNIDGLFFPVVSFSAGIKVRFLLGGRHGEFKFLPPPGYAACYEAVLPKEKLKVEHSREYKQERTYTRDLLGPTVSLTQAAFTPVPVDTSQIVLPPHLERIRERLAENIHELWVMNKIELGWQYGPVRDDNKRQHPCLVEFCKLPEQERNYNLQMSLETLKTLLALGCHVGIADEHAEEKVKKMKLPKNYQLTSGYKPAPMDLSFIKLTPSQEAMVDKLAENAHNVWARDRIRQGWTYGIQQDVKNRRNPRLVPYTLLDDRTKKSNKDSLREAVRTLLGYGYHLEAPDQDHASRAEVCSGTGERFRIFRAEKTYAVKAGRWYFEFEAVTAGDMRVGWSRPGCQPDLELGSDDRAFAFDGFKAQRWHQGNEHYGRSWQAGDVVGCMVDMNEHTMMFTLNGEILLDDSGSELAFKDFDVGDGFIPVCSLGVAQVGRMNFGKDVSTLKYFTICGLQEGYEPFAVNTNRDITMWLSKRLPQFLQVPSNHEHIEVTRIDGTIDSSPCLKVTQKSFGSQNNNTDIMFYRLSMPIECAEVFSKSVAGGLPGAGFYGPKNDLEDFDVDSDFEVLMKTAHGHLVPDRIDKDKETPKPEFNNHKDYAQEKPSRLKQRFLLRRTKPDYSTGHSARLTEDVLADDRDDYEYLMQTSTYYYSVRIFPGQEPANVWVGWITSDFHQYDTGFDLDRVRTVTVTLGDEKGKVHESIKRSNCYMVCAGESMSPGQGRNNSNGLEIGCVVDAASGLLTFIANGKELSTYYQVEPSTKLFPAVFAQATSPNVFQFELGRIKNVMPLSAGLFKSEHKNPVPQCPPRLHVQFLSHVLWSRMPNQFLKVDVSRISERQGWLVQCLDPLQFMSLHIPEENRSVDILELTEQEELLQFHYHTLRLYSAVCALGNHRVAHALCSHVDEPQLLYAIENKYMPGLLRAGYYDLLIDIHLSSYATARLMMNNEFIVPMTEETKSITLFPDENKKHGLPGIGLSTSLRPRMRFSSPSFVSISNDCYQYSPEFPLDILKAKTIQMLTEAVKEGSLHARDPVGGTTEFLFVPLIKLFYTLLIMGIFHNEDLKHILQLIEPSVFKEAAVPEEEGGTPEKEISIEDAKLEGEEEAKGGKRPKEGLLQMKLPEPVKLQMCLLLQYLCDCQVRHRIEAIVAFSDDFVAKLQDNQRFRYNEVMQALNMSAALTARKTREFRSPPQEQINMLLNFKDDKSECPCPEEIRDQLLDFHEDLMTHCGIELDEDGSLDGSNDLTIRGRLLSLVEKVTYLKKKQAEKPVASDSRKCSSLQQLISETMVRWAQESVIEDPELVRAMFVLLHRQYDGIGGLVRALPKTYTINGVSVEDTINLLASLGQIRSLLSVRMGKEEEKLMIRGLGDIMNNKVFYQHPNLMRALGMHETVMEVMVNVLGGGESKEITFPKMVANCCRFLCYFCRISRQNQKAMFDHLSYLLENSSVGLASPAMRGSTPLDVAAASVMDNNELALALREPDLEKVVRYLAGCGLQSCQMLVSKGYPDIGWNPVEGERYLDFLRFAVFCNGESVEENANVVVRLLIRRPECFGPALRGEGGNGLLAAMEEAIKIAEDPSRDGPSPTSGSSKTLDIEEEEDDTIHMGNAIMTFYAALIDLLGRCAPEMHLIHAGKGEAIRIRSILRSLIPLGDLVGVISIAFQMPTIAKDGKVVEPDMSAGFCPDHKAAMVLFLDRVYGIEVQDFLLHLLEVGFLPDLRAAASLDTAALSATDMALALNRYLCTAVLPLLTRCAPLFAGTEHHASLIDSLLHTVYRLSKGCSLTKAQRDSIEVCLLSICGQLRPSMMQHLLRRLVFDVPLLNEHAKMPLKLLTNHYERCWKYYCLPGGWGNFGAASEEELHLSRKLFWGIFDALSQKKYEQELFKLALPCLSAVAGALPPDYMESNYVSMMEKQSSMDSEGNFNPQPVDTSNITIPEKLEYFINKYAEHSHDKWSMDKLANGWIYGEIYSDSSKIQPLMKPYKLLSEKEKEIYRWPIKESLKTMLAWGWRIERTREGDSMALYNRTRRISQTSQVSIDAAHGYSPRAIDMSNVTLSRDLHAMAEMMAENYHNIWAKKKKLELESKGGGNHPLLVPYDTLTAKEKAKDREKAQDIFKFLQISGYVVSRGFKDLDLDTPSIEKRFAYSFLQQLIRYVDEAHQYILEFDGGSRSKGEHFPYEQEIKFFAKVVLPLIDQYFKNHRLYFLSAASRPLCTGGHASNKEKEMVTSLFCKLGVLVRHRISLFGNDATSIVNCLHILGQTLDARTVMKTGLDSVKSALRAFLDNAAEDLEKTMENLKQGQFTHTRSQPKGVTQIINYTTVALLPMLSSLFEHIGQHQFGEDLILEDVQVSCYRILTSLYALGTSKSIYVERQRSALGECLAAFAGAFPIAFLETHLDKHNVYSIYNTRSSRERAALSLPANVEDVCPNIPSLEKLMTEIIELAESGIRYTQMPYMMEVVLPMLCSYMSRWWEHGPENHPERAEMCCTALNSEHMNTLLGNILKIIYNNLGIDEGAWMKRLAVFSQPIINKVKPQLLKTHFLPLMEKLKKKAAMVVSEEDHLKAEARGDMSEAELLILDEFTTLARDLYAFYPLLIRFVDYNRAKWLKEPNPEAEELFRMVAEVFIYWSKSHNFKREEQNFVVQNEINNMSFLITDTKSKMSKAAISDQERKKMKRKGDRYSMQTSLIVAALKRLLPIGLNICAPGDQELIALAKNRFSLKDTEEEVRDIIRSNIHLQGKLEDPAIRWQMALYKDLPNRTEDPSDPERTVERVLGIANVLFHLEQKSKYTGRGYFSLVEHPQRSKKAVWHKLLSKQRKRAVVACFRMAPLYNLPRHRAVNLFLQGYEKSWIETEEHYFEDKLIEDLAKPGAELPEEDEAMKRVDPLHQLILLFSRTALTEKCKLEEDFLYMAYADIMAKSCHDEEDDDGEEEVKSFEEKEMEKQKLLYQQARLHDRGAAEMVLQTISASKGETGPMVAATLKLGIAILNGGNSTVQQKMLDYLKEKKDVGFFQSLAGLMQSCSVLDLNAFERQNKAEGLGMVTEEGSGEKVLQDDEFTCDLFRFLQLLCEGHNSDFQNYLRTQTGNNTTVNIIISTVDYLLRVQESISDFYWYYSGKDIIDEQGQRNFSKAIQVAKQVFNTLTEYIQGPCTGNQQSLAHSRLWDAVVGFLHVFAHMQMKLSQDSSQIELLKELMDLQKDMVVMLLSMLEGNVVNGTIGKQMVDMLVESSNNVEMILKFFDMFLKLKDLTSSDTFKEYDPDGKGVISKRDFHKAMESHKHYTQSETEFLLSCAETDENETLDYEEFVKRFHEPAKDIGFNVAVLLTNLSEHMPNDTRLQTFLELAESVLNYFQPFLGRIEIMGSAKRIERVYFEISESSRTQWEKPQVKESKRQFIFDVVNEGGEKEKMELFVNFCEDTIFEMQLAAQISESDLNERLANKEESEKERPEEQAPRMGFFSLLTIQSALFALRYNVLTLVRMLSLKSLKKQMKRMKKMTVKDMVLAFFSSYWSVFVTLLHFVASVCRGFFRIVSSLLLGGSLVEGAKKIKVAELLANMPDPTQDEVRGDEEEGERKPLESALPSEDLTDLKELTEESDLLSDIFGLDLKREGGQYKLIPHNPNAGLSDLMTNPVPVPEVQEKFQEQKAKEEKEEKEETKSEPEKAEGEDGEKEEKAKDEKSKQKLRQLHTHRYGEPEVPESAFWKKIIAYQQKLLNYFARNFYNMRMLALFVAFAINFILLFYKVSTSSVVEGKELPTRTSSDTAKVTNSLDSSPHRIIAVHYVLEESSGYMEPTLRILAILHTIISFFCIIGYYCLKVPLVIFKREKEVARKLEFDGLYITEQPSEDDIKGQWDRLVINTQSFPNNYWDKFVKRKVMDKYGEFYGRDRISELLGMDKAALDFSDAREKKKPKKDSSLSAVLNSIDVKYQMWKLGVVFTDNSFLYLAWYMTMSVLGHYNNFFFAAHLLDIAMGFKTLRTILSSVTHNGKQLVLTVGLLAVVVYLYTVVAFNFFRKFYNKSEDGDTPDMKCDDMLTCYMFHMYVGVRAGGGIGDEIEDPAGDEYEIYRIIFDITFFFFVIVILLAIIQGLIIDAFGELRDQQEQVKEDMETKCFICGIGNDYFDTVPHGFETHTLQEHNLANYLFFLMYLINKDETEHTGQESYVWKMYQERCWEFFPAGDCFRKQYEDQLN", "experiment": "Spontaneous Ca2+ sparks and spark frequency in intact murine myocytes", "protocol": "Freshly isolated mouse cardiac myocytes were loaded with the Ca^2+ indicator fluo-4/AM (Molecular Probes, 20 μM for 30 min). Confocal images were acquired using a confocal laser-scanning microscope (LSM510, Carl Zeiss) with a Zeiss Plan-Neofluor 40× oil immersion objective (NA≈1.3). Fluo-4/AM was excited by an argon laser (488 nm), and fluorescence was measured at >505 nm. Images were taken in the line-scan mode, with the scan line parallel to the long axis of the myocytes. Each image consisted of 512 line scans obtained at 1.92 ms intervals, each comprising 512 pixels at 0.10 μm separation. Digital image analysis used customer-designed programs coded in Interactive Data language (IDL) and a modified spark detection algorithm. Cheng, H. et al., Biophys. J., 76, 606-617 (1999).\n(§2) Nitroxyl (HNO) confers positive inotropy in vivo. Here, it was determined whether HNO action stems from a direct influence on sarcoplasmic reticulum (SR) Ca^2+ cycling, involving enhanced Ca^2+ release from ryanodine receptors (RyR2). Myocytes were isolated from ST mice, suspended in Tyrode's solution (1 mM Ca^2+) and field stimulated (0.5 Hz, 25° C.). Sarcomere shortening (SS) was assessed by real-time image analysis, Ca^2+ transients from Indo-1 fluorescence. RyR2 activity was determined by optical imaging of Ca^2+ release from single Ca^2+ release units. The HNO donor Angeli's Salt (AS) induced dose-dependent inotropy (SS: 73±31% at 0.5 mM; 131±31% at 1 mM; all n=15, p<0.05 vs. base; <0.1 mM: no effect). In contrast, the NO donor DEA/NO reduced SS by 55-65% at 5-50 μM (both p<0.05 vs. base), with no effect at higher doses. […] However, co-infusion with the thiol-donating compound N-acetyl-L-cysteine (NAC, 3 mM) abolished AS inotropy."}, "isolated mouse myocytes": {"tested_on": "isolated mouse myocytes", "experiment": "SR Ca2+ stores by rapid caffeine infusion in mouse myocytes", "conditions": "1 mM AS; caffeine alone 223±34; n=8", "protocol": "as §2"}, "[1]": {"tested_on": "isolated rat ventricular myocytes", "experiment": "Whole Ca2+ transients and SR Ca2+ load in isolated rat ventricular myocytes (Indo-1, caffeine)", "protocol": "Isolation of ventricular myocytes from rats was carried out as previously described. Bassani, R A. et al., J. Mol. Cell Cardiol., 26, 1335-1347 (1994). The enzyme used for tissue dissociation was Liberase Blendzyme 3 or 4 (13-20 Wuensch Units/Heart) sometimes supplemented with 5-10 Units of Dispase II (both Roche Diagnostics, Indianapolis, Ind.). When the heart became flaccid, left ventricular tissue was cut into small pieces for further incubation (5 to 10 min at 37° C.) in enzyme solution. The tissue was dispersed, filtered, and suspensions rinsed several times before used for experiments. Isolated rat ventricular myocytes were then plated onto superfusion chambers, with the glass bottoms treated with natural mouse laminin (Invitrogen, Carlsbad, Calif.). The standard Tyrode's solution used in all experiments contained (in mM): NaCl 140, KCl 4, MgCl2 1, glucose 10, HEPES 5, and CaCl2 1, pH 7.4. Myocytes were loaded with 6 μM Indo-1/AM for 25 min and subsequently perfused for at least 30 min to allow for deesterfication of the dye. Some cells were pretreated with 0.5 mM AS (in some Caffeine experiments with 1 mM), washed and then loaded with Indo-1/AM. Concentration of the AS stock solution was verified by absorbance at 250 nm. All experiments were done at room temperature (23-25° C.) using field stimulation. Ca^2+-transients were recorded with Clampex 8.0 and data analyzed with Clampfit.\nas §1"}}, "note": "Entries after “also recorded” stand apart in the source; their conditions may differ.", "data": [{"compound": "[Na+].[Na+].[O-][N+]([O-])=NO", "note": "[AS, Angeli's salt]", "values": [{"measurement": "Ca2+ transient decay time", "setting": "mice cardiomyocytes; 0.5 mM AS pretreatment", "value": "shortened"}, {"measurement": "time to peak Ca2+ transient", "setting": "mice cardiomyocytes; 0.5 mM AS pretreatment", "value": "prolonged"}, {"measurement": "increase of calcium transient amplitude over baseline", "setting": "mice cardiomyocytes; 0.5 mM AS pretreatment, n=27", "value": "~40", "unit": "%"}, {"measurement": "basal fluorescence (F0)", "setting": "mice cardiomyocytes; AS pretreatment", "value": "unchanged"}, {"measurement": "Ca2+ transients", "setting": "mice cardiomyocytes; AS, isolated murine cardiomyocytes (Example 7)", "value": "without changes"}, {"measurement": "calcium spark frequency relative to controls", "setting": "RyR2; 0.5 mM AS", "value": "~7", "unit": "times"}, {"measurement": "increase of calcium spark frequency", "setting": "RyR2; 0.5 mM AS", "value": 7, "unit": "fold"}, {"measurement": "frequency of calcium sparks (CSF)", "setting": "RyR2; 0.5 mM AS, controls 4±1", "value": "26±3", "unit": "sparks/100 μm/s"}, {"measurement": "rise in Ca2+ spark frequency", "setting": "RyR2; 1 mM AS, n=10-24", "value": 18, "unit": "fold"}, {"measurement": "individual spark amplitude, rise time and spatial width", "setting": "RyR2; AS", "value": "unaltered"}, {"measurement": "AS-induced increase in spark frequency after thiol (GSH) pre-treatment", "setting": "RyR2; reduced glutathione preincubation before AS", "value": "prevented; also recorded: abrogated"}, {"measurement": "SR Ca2+ stores (% [Ca2+]i on caffeine)", "setting": "isolated mouse myocytes", "value": "138±17", "unit": "%"}, {"measurement": "fractional SR Ca2+ release", "setting": "[1]; AS pretreated", "value": "enhanced"}, {"measurement": "relative contribution of NCX to Ca2+ removal", "setting": "[1]; AS pretreated cells, Con 12.4%", "value": 8.7, "unit": "%"}, {"measurement": "relative contribution of the SR to Ca2+ removal", "setting": "[1]; AS pretreated cells, Con 87.6%", "value": 91.3, "unit": "%"}, {"measurement": "diastolic Ca2+ level (ratio 405/485)", "setting": "[1]; AS pretreated rat myocytes, Con 0.239±0.006, n.s.", "value": "0.243±0.008"}, {"measurement": "SR Ca2+ content (total SR load, caffeine)", "setting": "[1]; AS pretreated, caffeine 10 mM", "value": "unchanged; also recorded: did not alter"}, {"measurement": "τ of caffeine-induced Ca2+ transient decline (Na/Ca exchange function)", "setting": "[1]; caffeine 10 mM, printed 2.0±0.4 vs. 2.2±0.3, order Con vs. AS assumed", "value": "2.2 ± 0.3", "unit": "s"}]}]}
